Patent US8673929B2, “4,6-di- and 2,4,6-trisubstituted quinazoline derivatives and pharmaceutical compositions useful for treating viral infections” (priority 2006, dated 2014)

Tests used:
HCV replicon = assay: Anti-HCV replicon assay, EC50 (luciferase readout); format: cell-based; settings: Hepatitis C virus, 72 h; Huh-7 HCV replicon cells, 3 days incubation, luciferase luminescence
Procedure: (§1) The anti HCV activity of the quinazoline derivatives of this invention was tested in a human hepatoma Huh-7 cell line harbouring a HCV replicon. The assay comprised the following steps:
(§2) Step 1: compound preparation and serial dilution • 1. for water soluble quinazoline derivatives, a volume of 500 μL of solution in cell media (DMEM, 10% FBS, P/S, L-Glutamine) was prepared with a concentration being twice the concentration of the starting final serial dilution concentration. A volume of 150 μL of the solution was added to the pre-specified wells in column 1 of a 96-well cell culture plate (PerkinElmer, white plate, cat. #6005181, for EC50 assay; black plate, cat. #6005182 for CC50 assay). The rest of the plate, columns 2-12, was filled with 100 μL of cell media. The plate was then placed on a Precision 2000 Workstation to start the serial dilution. Compounds were diluted three times each step from column 1 to column 10. Column 11 was used as a blank control (no compound added). • 2. for quinazoline derivatives requiring DMSO to dissolve, serial dilution is performed in 50% DMSO in a 384-well plate. A solution containing a compound at 100-fold concentration of the starting final serial dilution concentration was prepared in 50% DMSO and added to the pre-specified wells in column 1 of a polypropylene 384-well plate. The plate was then placed on a Precision 2000 Workstation to start the serial dilution. After the serial dilution, a volume of 2 μL of the solution was transferred from the 384-well plate to a 96-well cell culture plate containing 100 μL of cell media on a Biomek FX Workstation. The DMSO concentration in the final assay condition was 0.5% after cells are added to the plate and the total volume in each well is brought to 200 μL.
(§3) Step 2: to each well of the serial dilution plate prepared above, 100 μL of cell media containing 6000 suspended Huh-7 HCV replicon cells was added with a Multidrop workstation. The plates were incubated for 3 days at 37° C. with 5% CO2.
(§4) Step 3: detection: • a) for the EC50 assay, the media in a 96-well cell culture plate was aspirated with a Biotek EL405 plate-washer. A volume of 200 μL of a solution containing a 1:1 mixture of cell-lysis buffer (Promega, Luciferase Cell Culture Lysis 5× Reagent, cat. #E1531) and luciferase substrate solution (Promega, Luciferase Assay, cat.# E4550) was added to each well of the plate with Multidrop. The plate was incubated for 30 minutes at room temperature before the luminescence signal was measured with a TopCount plate-reader. • b) for the CC50 assay, a volume of 100 μL of pre-mixed CellTiter-Glo (Promega, cat.# G7572) solution is added directly to the cell culture in each well of the plate and the luminescence signal is measured with a TopCount plate-reader after 10 minutes of incubation at room temperature.
(§5) Results in the table below are expressed by the following data: • the 50% cytostatic concentration (CC50), i.e. the concentration that results in 50% inhibition of cell growth, and • the 50% effective concentration (EC50), i.e. the concentration that […].

[1] = CC50 assay in the anti-HCV replicon assay (CellTiter-Glo); format: cell-based, human; settings: human, Huh-7 hepatoma cells harbouring an HCV replicon; Huh-7 HCV replicon cells, 3 days incubation, CellTiter-Glo luminescence
Procedure: as §1, §2, §3, §4, §5

Q: With `COCCOc1nc(N)nc2ccc(-c3ccc(F)c(F)c3)cc12` [Example 62, 6-(3,4-Difluoro-phenyl)-4-(2-methoxy-ethoxy)-quinazolin-2-ylamine] as the compound, how does the EC50 (HCV replicon) read?
A: 1 to 10 µM

Q: What about the CC50 at 3 days [1] of the same compound?
A: 10 to 20 µM

Q: For `COCCOc1nc(N)nc2ccc(-c3cccc(C#N)c3)cc12` [Example 63, 3-(2-Amino-4-(2-methoxy-ethoxy)-quinazolin-6-yl)-benzonitrile], which EC50 (HCV replicon) is on record?
A: 1 to 10 µM

Q: What about the CC50 at 3 days [1] of the same compound?
A: > 20 µM

Q: Which EC50 (HCV replicon) does the source give for `COCCOc1nc(N)nc2ccc(-c3cn[nH]c3)cc12` [Example 64, 4-(2-Methoxy-ethoxy)-6-(2H-pyrazol-4-yl)-quinazolin-2-ylamine] here?
A: 1 to 10 µM

Q: What about the CC50 at 3 days [1] of the same compound?
A: > 20 µM

Q: What does the source list for `COCCOc1nc(N)nc2ccc(-c3ccc(N)cc3)cc12` [Example 65, 6-(4-Amino-phenyl)-4-(2-methoxy-ethoxy)-quinazolin-2-ylamine]?
A: EC50 (HCV replicon): 1 to 10 µM; CC50 at 3 days [1]: > 20 µM

Q: For `COCCOc1nc(N)nc2ccc(-c3ccc(F)c(F)c3F)cc12` [Example 66, 4-(2-Methoxy-ethoxy)-6-(2,3,4-trifluoro-phenyl)-quinazolin-2-ylamine], which EC50 (HCV replicon) is on record?
A: 1 to 10 µM

Q: And the CC50 at 3 days [1]?
A: > 20 µM

Q: With `COCCOc1nc(N)nc2ccc(-c3ccc(F)cc3C)cc12` [Example 67, 6-(4-Fluoro-2-methyl-phenyl)-4-(2-methoxy-ethoxy)-quinazolin-2-ylamine] as the compound, how does the EC50 (HCV replicon) read?
A: 1 to 10 µM

Q: What about the CC50 at 3 days [1] of the same compound?
A: 10 to 20 µM

Q: For `COCCOc1nc(N)nc2ccc(-c3ccc(O)cc3)cc12` [Example 68, 4-[2-Amino-4-(2-methoxy-ethoxy)-quinazolin-6-yl]-phenol], which EC50 (HCV replicon) is on record?
A: 0.3 to 1 µM

Q: And the CC50 at 3 days [1]?
A: 10 to 20 µM

Q: For `COCCOc1nc(N)nc2ccc(-c3ccc(Cl)c(C(F)(F)F)c3)cc12` [Example 69, 6-(4-Chloro-3-trifluoromethyl-phenyl)-4-(2-methoxy-ethoxy)-quinazolin-2-ylamine], which EC50 (HCV replicon) is on record?
A: 1 to 10 µM

Q: What about the CC50 at 3 days [1] of the same compound?
A: > 20 µM

Q: Which results are given for `Nc1nc(OCc2ccccc2)c2cc(-c3ccn[nH]3)ccc2n1` [Example 70, 4-Benzyloxy-6-(2H-pyrazol-3-yl)-quinazolin-2-ylamine]?
A: EC50 (HCV replicon): 1 to 10 µM; CC50 at 3 days [1]: 10 to 20 µM

Q: Which EC50 (HCV replicon) does the source give for `CNC(=O)c1ccc(-c2ccc3nc(N)nc(OCc4ccccc4)c3c2)cc1` [Example 71, 4-(2-Amino-4-benzyloxy-quinazolin-6-yl)-N-methyl-benzamide] here?
A: 0.3 to 1 µM

Q: And the CC50 at 3 days [1]?
A: > 20 µM

Q: With `Nc1nc(OCc2ccccc2)c2cc(-c3cn[nH]c3)ccc2n1` [Example 72, 4-benzyloxy-6-(1H-pyrazol-4-yl)-quinazolin-2-ylamine] as the compound, how does the EC50 (HCV replicon) read?
A: 1 to 10 µM

Q: What about the CC50 at 3 days [1] of the same compound?
A: > 20 µM

Q: Which EC50 (HCV replicon) does the source give for `CN(C)CCOCCOc1nc(N)nc2ccc(-c3ccc(OC(F)(F)F)cc3)cc12` [Example 73, 4-[2-(2-Dimethylamino-ethoxy)-ethoxy]-6-(4-trifluoromethoxy-phenyl)-quinazolin-2-ylamine] here?
A: 1 to 10 µM

Q: And the CC50 at 3 days [1]?
A: 10 to 20 µM

Q: Which results are given for `CC(C)Oc1nc(N)nc2ccc(-c3ccc(F)cc3F)cc12` [Example 74, 6-(2,4-Difluoro-phenyl)-4-isopropoxy-quinazolin-2-ylamine]?
A: EC50 (HCV replicon): 1 to 10 µM; CC50 at 3 days [1]: 10 to 20 µM

Q: Which EC50 (HCV replicon) does the source give for `CC(C)Oc1nc(N)nc2ccc(-c3cccc(F)c3F)cc12` [Example 75] here?
A: 0.3 to 1 µM

Q: What about the CC50 at 3 days [1] of the same compound?
A: > 20 µM

Q: Which EC50 (HCV replicon) does the source give for `CC(C)Oc1nc(N)nc2ccc(-c3cccc(C(F)(F)F)c3)cc12` [Example 76, 4-Isopropoxy-6-(3-trifluoromethyl-phenyl)-quinazolin-2-ylamine] here?
A: 1 to 10 µM

Q: And the CC50 at 3 days [1]?
A: > 20 µM

Q: For `CC(C)Oc1nc(N)nc2ccc(-c3ccccc3C(F)(F)F)cc12` [Example 77, 4-Isopropoxy-6-(2-trifluoromethyl-phenyl)-quinazolin-2-ylamine], which EC50 (HCV replicon) is on record?
A: 1 to 10 µM

Q: What about the CC50 at 3 days [1] of the same compound?
A: 10 to 20 µM

Q: Which EC50 (HCV replicon) does the source give for `CC(C)Oc1nc(N)nc2ccc(-c3ccc(Cl)cc3)cc12` [Example 78, 4-Isopropoxy-6-(4-chloro-phenyl)-quinazolin-2-ylamine] here?
A: 1 to 10 µM

Q: What about the CC50 at 3 days [1] of the same compound?
A: > 20 µM

Q: For `Cc1ccc(-c2ccc3nc(N)nc(OC(C)C)c3c2)cc1` [Example 79, 4-Isopropoxy-6-p-tolyl-quinazolin-2-ylamine], which EC50 (HCV replicon) is on record?
A: 1 to 10 µM

Q: What about the CC50 at 3 days [1] of the same compound?
A: > 20 µM

Q: For `CC(C)Oc1nc(N)nc2ccc(-c3ccc(Cl)cc3Cl)cc12` [Example 80, 6-(2,4-Dichloro-phenyl)-4-isopropoxy-quinazolin-2-ylamine], which EC50 (HCV replicon) is on record?
A: 1 to 10 µM

Q: What about the CC50 at 3 days [1] of the same compound?
A: > 20 µM

Q: For `CC(C)Oc1nc(N)nc2ccc(-c3ccc(F)cc3Cl)cc12` [Example 81, 6-(2-Chloro-4-fluoro-phenyl)-4-isopropoxy-quinazolin-2-ylamine], which EC50 (HCV replicon) is on record?
A: 1 to 10 µM

Q: And the CC50 at 3 days [1]?
A: 10 to 20 µM

Q: With `CC(C)Oc1nc(N)nc2ccc(-c3cccc(Cl)c3)cc12` [Example 82, 6-(3-Chloro-phenyl)-4-isopropoxy-quinazolin-2-ylamine] as the compound, how does the EC50 (HCV replicon) read?
A: 1 to 10 µM

Q: And the CC50 at 3 days [1]?
A: > 20 µM

Q: With `CC(C)Oc1nc(N)nc2ccc(-c3cc4ccccc4s3)cc12` [Example 83, 6-Benzo[b]thiophen-2-yl-4-isopropoxy-quinazolin-2-ylamine] as the compound, how does the EC50 (HCV replicon) read?
A: 1 to 10 µM

Q: And the CC50 at 3 days [1]?
A: 10 to 20 µM

Q: Which EC50 (HCV replicon) does the source give for `CC(C)Oc1nc(N)nc2ccc(-c3ccoc3)cc12` [Example 84, 6-Furan-3-yl-4-isopropoxy-quinazolin-2-ylamine] here?
A: 0.3 to 1 µM

Q: What about the CC50 at 3 days [1] of the same compound?
A: 10 to 20 µM

Q: With `CC(C)Oc1nc(N)nc2ccc(-c3ccn[nH]3)cc12` [Example 85, 4-Isopropoxy-6-(2H-pyrazol-3-yl)-quinazolin-2-ylamine] as the compound, how does the EC50 (HCV replicon) read?
A: 0.3 to 1 µM

Q: And the CC50 at 3 days [1]?
A: > 20 µM

Q: Which EC50 (HCV replicon) does the source give for `CC(C)Oc1nc(N)nc2ccc(-c3cc4ccccc4o3)cc12` [Example 86, 6-Benzofuran-2-yl-4-isopropoxy-quinazolin-2-ylamine] here?
A: 0.3 to 1 µM

Q: And the CC50 at 3 days [1]?
A: > 20 µM

Q: Which EC50 (HCV replicon) does the source give for `CNC(=O)c1ccc(-c2ccc3nc(N)nc(OC(C)C)c3c2)cc1` [Example 87, 4-(2-Amino-4-isopropoxy-quinazolin-6-yl)-N-methyl-benzamide] here?
A: 0.3 to 1 µM

Q: And the CC50 at 3 days [1]?
A: 10 to 20 µM

Q: What does the source list for `CC(C)Oc1nc(N)nc2ccc(-c3ccco3)cc12` [Example 88, 6-Furan-2-yl-4-isopropoxy-quinazolin-2-ylamine]?
A: EC50 (HCV replicon): 1 to 10 µM; CC50 at 3 days [1]: > 20 µM

Q: Which results are given for `CC(C)Oc1nc(N)nc2ccc(-c3ccsc3)cc12` [Example 89, 4-Isopropoxy-6-thiophen-3-yl-quinazolin-2-ylamine]?
A: EC50 (HCV replicon): 0.3 to 1 µM; CC50 at 3 days [1]: 10 to 20 µM

Q: What does the source list for `CC(C)Oc1nc(N)nc2ccc(-c3cccnc3)cc12` [Example 90, 4-Isopropoxy-6-pyridin-3-yl-quinazolin-2-ylamine]?
A: EC50 (HCV replicon): 0.3 to 1 µM; CC50 at 3 days [1]: > 20 µM

Q: With `CC(C)Oc1nc(N)nc2ccc(-c3ccc(F)c(F)c3)cc12` [Example 91, 6-(3,4-Difluoro-phenyl)-4-isopropoxy-quinazolin-2-ylamine] as the compound, how does the EC50 (HCV replicon) read?
A: 0.3 to 1 µM

Q: And the CC50 at 3 days [1]?
A: 10 to 20 µM

Q: What does the source list for `CC(C)Oc1nc(N)nc2ccc(-c3ccncc3)cc12` [Example 92, 4-Isopropoxy-6-pyridin-4-yl-quinazolin-2-ylamine]?
A: EC50 (HCV replicon): 0.3 to 1 µM; CC50 at 3 days [1]: 10 to 20 µM

Q: For `CC(C)Oc1nc(N)nc2ccc(-c3cccc(C#N)c3)cc12` [Example 93, 3-(2-Amino-4-isopropoxy-quinazolin-6-yl)-benzonitrile], which EC50 (HCV replicon) is on record?
A: 0.3 to 1 µM

Q: What about the CC50 at 3 days [1] of the same compound?
A: 10 to 20 µM

Q: Which EC50 (HCV replicon) does the source give for `CC(C)Oc1nc(N)nc2ccc(-c3cc(F)cc(F)c3)cc12` [Example 94, 6-(3,5-Difluoro-phenyl)-4-isopropoxy-quinazolin-2-ylamine] here?
A: 1 to 10 µM

Q: And the CC50 at 3 days [1]?
A: > 20 µM

Q: For `CC(C)Oc1nc(N)nc2ccc(-c3ccc(OC(F)(F)F)cc3)cc12` [Example 95, 4-Isopropoxy-6-(4-trifluoromethoxy-phenyl)-quinazolin-2-ylamine], which EC50 (HCV replicon) is on record?
A: 1 to 10 µM

Q: What about the CC50 at 3 days [1] of the same compound?
A: > 20 µM

Q: For `CC(C)Oc1nc(N)nc2ccc(-c3ccc(N)cc3)cc12` [Example 96, 6-(4-Amino-phenyl)-4-isopropoxy-quinazolin-2-ylamine], which EC50 (HCV replicon) is on record?
A: 0.3 to 1 µM

Q: And the CC50 at 3 days [1]?
A: > 20 µM

Q: For `CC(C)Oc1nc(N)nc2ccc(-c3ccc(F)c(F)c3F)cc12` [Example 97, 4-Isopropoxy-6-(2,3,4-trifluoro-phenyl)-quinazolin-2-ylamine], which EC50 (HCV replicon) is on record?
A: 0.3 to 1 µM

Q: What about the CC50 at 3 days [1] of the same compound?
A: > 20 µM
